Laboratory results published in US9730940B2, “Purine inhibitors of human phosphatidylinositol 3-kinase delta” (priority 2012, dated 2017).

Biological target: PI3K-alpha (Homo sapiens (Human), UniProt P42336)
Experiment: HTRF PI3K biochemical assay, alpha isoform
Conditions: ratio PI3K-alpha IC50 value/PI3K-delta IC50 value

PI3K-alpha, sequence (P42336 whole entry, looked up, canonical isoform): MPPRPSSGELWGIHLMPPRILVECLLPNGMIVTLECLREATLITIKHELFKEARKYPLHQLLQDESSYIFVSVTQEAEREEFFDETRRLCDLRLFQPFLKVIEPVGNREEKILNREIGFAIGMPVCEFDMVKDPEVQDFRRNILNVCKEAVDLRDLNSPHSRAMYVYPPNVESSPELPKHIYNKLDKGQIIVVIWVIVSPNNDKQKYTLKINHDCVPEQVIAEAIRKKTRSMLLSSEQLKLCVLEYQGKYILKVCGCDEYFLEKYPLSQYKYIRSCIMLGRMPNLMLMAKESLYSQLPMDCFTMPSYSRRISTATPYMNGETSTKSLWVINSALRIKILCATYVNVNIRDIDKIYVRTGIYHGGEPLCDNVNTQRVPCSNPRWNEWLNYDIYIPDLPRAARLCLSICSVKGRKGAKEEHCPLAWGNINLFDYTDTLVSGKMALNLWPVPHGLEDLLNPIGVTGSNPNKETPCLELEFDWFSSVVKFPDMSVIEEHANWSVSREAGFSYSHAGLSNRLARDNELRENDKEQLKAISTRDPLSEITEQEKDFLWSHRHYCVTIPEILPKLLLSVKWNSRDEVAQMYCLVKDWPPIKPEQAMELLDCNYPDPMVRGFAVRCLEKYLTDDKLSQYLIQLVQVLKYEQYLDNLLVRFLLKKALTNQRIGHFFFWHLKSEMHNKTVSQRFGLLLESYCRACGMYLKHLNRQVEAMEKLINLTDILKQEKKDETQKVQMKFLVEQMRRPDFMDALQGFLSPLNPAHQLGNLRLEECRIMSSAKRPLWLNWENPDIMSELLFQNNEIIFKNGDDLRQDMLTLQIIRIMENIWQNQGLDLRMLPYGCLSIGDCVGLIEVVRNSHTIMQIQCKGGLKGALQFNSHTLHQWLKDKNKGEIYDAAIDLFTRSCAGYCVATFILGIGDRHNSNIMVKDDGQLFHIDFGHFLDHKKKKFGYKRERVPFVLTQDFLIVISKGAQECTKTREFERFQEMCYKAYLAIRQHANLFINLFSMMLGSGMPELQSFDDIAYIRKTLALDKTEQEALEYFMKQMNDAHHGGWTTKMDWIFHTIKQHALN
PI3K-alpha, sequence (P27986 whole entry partner, looked up, canonical isoform): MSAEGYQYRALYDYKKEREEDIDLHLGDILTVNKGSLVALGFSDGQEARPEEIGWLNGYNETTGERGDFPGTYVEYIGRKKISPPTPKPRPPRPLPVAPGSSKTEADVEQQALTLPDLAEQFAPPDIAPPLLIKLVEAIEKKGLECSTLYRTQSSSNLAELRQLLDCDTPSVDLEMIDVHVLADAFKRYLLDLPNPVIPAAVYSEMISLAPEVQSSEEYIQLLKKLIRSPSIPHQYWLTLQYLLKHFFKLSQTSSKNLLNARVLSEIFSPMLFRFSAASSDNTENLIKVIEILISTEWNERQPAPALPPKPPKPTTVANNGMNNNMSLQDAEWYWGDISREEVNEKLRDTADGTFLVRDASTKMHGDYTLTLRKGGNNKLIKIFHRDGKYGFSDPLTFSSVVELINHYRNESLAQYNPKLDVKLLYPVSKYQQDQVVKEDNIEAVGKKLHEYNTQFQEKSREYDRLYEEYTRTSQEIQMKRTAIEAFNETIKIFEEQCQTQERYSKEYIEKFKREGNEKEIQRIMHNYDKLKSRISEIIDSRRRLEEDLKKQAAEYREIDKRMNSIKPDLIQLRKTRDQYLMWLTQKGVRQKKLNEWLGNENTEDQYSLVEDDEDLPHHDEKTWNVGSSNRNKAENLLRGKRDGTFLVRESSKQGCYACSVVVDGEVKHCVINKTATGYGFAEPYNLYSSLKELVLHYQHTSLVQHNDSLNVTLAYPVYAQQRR

Row | Structure (SMILES) | Relative Selectivity versus PI3Kalpha
1 | CCn1ncc(-c2nc3c(O[C@H]4CCN(C(=O)c5cc(C)nn5C)C4)ncnc3n2C)c1C [Compound 2-38, 6-({(3S)-1-[(1,3-dimethyl-1H-pyrazol-5-yl)carbonyl]pyrrolidin-3-yl}oxy)-8-(1-ethyl-5-methyl-1H-pyrazol-4-yl)-9-methyl-9H-purine] | 7
2 | CCn1ncc(-c2nc3c(O[C@H]4CCN(C(=O)c5nccn5C)C4)ncnc3n2C)c1C [Compound 2-39, 8-(1-ethyl-5-methyl-1H-pyrazol-4-yl)-9-methyl-6-({(3S)-1-[(1-methyl-1H-imidazol-2-yl)carbonyl]pyrrolidin-3-yl}oxy)-9H-purine] | >10
3 | CCn1ncc(-c2nc3c(O[C@H]4CCN(C(=O)c5c[nH]nn5)C4)ncnc3n2C)c1C [Compound 2-40, 8-(1-ethyl-5-methyl-1H-pyrazol-4-yl)-9-methyl-6-{[(3S)-1-(1H-1,2,3-triazol-4-ylcarbonyl)pyrrolidin-3-yl]oxy}-9H-purine] | 2
4 | CCn1ncc(-c2nc3c(O[C@H]4CCN(C(=O)c5cnn6cccnc56)C4)ncnc3n2C)c1C [Compound 2-41, 8-(1-ethyl-5-methyl-1H-pyrazol-4-yl)-9-methyl-6-{[(3S)-1-(pyrazolo[1,5-a]pyrimidin-3-ylcarbonyl)pyrrolidin-3-yl]oxy}-9H-purine] | 6
5 | CCn1ncc(-c2nc3c(O[C@H]4CCN(C(=O)c5nnc6n5CCCC6)C4)ncnc3n2C)c1C [Compound 2-42, 8-(1-ethyl-5-methyl-1H-pyrazol-4-yl)-9-methyl-6-{[(3S)-1-(5,6,7,8-tetrahydro[1,2,4]triazolo[4,3-a]pyridin-3-ylcarbonyl)pyrrolidin-3-yl]oxy}-9H-purine] | 3
6 | CCn1ncc(-c2nc3c(O[C@H]4CCN(C(=O)c5c[nH]nc5C(F)(F)F)C4)ncnc3n2C)c1C [Compound 2-43, 8-(1-ethyl-5-methyl-1H-pyrazol-4-yl)-9-methyl-6-{[(3S)-1-{[3-(trifluoromethyl)-1H-pyrazol-4-yl]carbonyl}pyrrolidin-3-yl]oxy}-9H-purine] | 10
7 | CCn1ncc(-c2nc3c(O[C@H]4CCN(C(=O)c5cn(C)nn5)C4)ncnc3n2C)c1C [Compound 2-44, 8-(1-ethyl-5-methyl-1H-pyrazol-4-yl)-9-methyl-6-({(3S)-1-[(1-methyl-1H-1,2,3-triazol-4-yl)carbonyl]pyrrolidin-3-yl}oxy)-9H-purine] | 9
8 | CCn1ncc(-c2nc3c(O[C@H]4CCN(C(=O)c5nnsc5C)C4)ncnc3n2C)c1C [Compound 2-46, 8-(1-ethyl-5-methyl-1H-pyrazol-4-yl)-9-methyl-6-({(3S)-1-[(5-methyl-1,2,3-thiadiazol-4-yl)carbonyl]pyrrolidin-3-yl}oxy)-9H-purine] | >10
9 | CCn1ncc(-c2nc3c(O[C@H]4CCN(C(=O)c5nc6cc(Cl)ccn6n5)C4)ncnc3n2C)c1C [Compound 2-47, 6-({(3S)-1-[(7-chloro[1,2,4]triazolo[1,5-a]pyridin-2-yl)carbonyl]pyrrolidin-3-yl}oxy)-8-(1-ethyl-5-methyl-1H-pyrazol-4-yl)-9-methyl-9H-purine] | 1
10 | CCn1ncc(-c2nc3c(O[C@H]4CCN(C(=O)c5[nH]ncc5C)C4)ncnc3n2C)c1C [Compound 2-48, 8-(1-ethyl-5-methyl-1H-pyrazol-4-yl)-9-methyl-6-({(3S)-1-[(4-methyl-1H-pyrazol-5-yl)carbonyl]pyrrolidin-3-yl}oxy)-9H-purine] | >10
11 | CCn1ncc(-c2nc3c(O[C@H]4CCN(C(=O)c5noc(C(C)(C)O)n5)C4)ncnc3n2C)c1C [Compound 2-50, 2-(3-{[(3S)-3-{[8-(1-ethyl-5-methyl-1H-pyrazol-4-yl)-9-methyl-9H-purin-6-yl]oxy}pyrrolidin-1-yl]carbonyl}-1,2,4-oxadiazol-5-yl)propan-2-ol] | 8
12 | CCn1ncc(-c2nc3c(O[C@H]4CCN(C(=O)c5conc5C)C4)ncnc3n2C)c1C [Compound 2-51, 8-(1-ethyl-5-methyl-1H-pyrazol-4-yl)-9-methyl-6-({(3S)-1-[(3-methylisoxazol-4-yl)carbonyl]pyrrolidin-3-yl}oxy)-9H-purine] | >10
13 | CCn1ncc(-c2nc3c(O[C@H]4CCN(C(=O)c5ccnn5C(C)C)C4)ncnc3n2C)c1C [Compound 2-52, 8-(1-ethyl-5-methyl-1H-pyrazol-4-yl)-9-methyl-6-{[(3S)-1-{[1-(1-methylethyl)-1H-pyrazol-5-yl]carbonyl}pyrrolidin-3-yl]oxy}-9H-purine] | >10
14 | CCn1ncc(-c2nc3c(O[C@H]4CCN(C(=O)c5ccnc(C)c5)C4)ncnc3n2C)c1C [Compound 2-56, 8-(1-ethyl-5-methyl-1H-pyrazol-4-yl)-9-methyl-6-({(3S)-1-[(2-methylpyridin-4-yl)carbonyl]pyrrolidin-3-yl}oxy)-9H-purine] | >10
15 | CCn1ncc(-c2nc3c(O[C@H]4CCN(C(=O)c5ncoc5C)C4)ncnc3n2C)c1C [Compound 2-57, 8-(1-ethyl-5-methyl-1H-pyrazol-4-yl)-9-methyl-6-({(3S)-1-[(5-methyl-1,3-oxazol-4-yl)carbonyl]pyrrolidin-3-yl}oxy)-9H-purine] | >10
16 | CCn1ncc(-c2nc3c(O[C@H]4CCN(C(=O)c5oc(C)nc5C)C4)ncnc3n2C)c1C [Compound 2-58, 6-({(3S)-1-[(2,4-dimethyl-1,3-oxazol-5-yl)carbonyl]pyrrolidin-3-yl}oxy)-8-(1-ethyl-5-methyl-1H-pyrazol-4-yl)-9-methyl-9H-purine] | >10
17 | CCn1ncc(-c2nc3c(O[C@H]4CCN(C(=O)c5cc(C)n(C)n5)C4)ncnc3n2C)c1C [Compound 2-59, 6-({(3S)-1-[(1,5-dimethyl-1H-pyrazol-3-yl)carbonyl]pyrrolidin-3-yl}oxy)-8-(1-ethyl-5-methyl-1H-pyrazol-4-yl)-9-methyl-9H-purine] | 2
18 | CCn1ncc(-c2nc3c(O[C@H]4CCN(C(=O)c5cc(C(F)(F)F)nn5C)C4)ncnc3n2C)c1C [Compound 2-61, 8-(1-ethyl-5-methyl-1H-pyrazol-4-yl)-9-methyl-6-{[(3S)-1-{[1-methyl-3-(trifluoromethyl)-1H-pyrazol-5-yl]carbonyl}pyrrolidin-3-yl]oxy}-9H-purine] | >10
19 | CCn1ncc(-c2nc3c(O[C@H]4CCN(C(=O)C5CC(=O)N(C)C5)C4)ncnc3n2C)c1C (stereo partly drawn) [Compound 2-62, 4-{[(3S)-3-{[8-(1-ethyl-5-methyl-1H-pyrazol-4-yl)-9-methyl-9H-purin-6-yl]oxy}pyrrolidin-1-yl]carbonyl}-1-methylpyrrolidin-2-one] | >10
20 | CCn1ncc(C(=O)N2CC[C@H](Oc3ncnc4c3nc(-c3cnn(CC)c3C)n4C)C2)c1C [Compound 2-63, 8-(1-ethyl-5-methyl-1H-pyrazol-4-yl)-6-({(3S)-1-[(1-ethyl-5-mcthyl-1H-pyrazol-4-yl)carbonyl]pyrrolidin-3-yl}oxy)-9-methyl-9H-purine] | 10
21 | CCn1ncc(-c2nc3c(O[C@H]4CCN(C(=O)c5ccncc5)C4)ncnc3n2C)c1C [Compound 2-64, 8-(1-ethyl-5-methyl-1H-pyrazol-4-yl)-9-methyl-6-{[(3S)-1-(pyridin-4-ylcarbonyl)pyrrolidin-3-yl]oxy}-9H-purine] | >10
22 | CCn1ncc(-c2nc3c(O[C@H]4CCN(C(=O)c5cnoc5C)C4)ncnc3n2C)c1C [Compound 2-65, 8-(1-ethyl-5-methyl-1H-pyrazol-4-yl)-9-methyl-6-({(3S)-1-[(5-methylisoxazol-4-yl)carbonyl]pyrrolidin-3-yl}oxy)-9H-purine] | >10
23 | CCn1ncc(-c2nc3c(O[C@H]4CCN(C(=O)c5ccccn5)C4)ncnc3n2C)c1C [Compound 2-66, 8-(1-ethyl-5-methyl-1H-pyrazol-4-yl)-9-methyl-6-{[(3S)-1-(pyridin-2-ylcarbonyl)pyirolidin-3-yl]oxy}-9H-purine] | >10
24 | CCn1ncc(-c2nc3c(O[C@H]4CCN(C(=O)c5cccn5C)C4)ncnc3n2C)c1C [Compound 2-67, 8-(1-ethyl-5-methyl-1H-pyrazol-4-yl)-9-methyl-6-({(3S)-1-[(1-methyl-1H-pyrrol-2-yl)carbonyl]pyrrolidin-3-yl}oxy)-9H-purine] | >10
25 | CCc1oncc1C(=O)N1CC[C@H](Oc2ncnc3c2nc(-c2cnn(CC)c2C)n3C)C1 [Compound 2-68, 6-({(3S)-1-[(5-ethylisoxazol-4-yl)carbonyl]pyrrolidin-3-yl}oxy)-8-(1-ethyl-5-methyl-1H-pyrazol-4-yl)-9-methyl-9H-purine] | >10
26 | CCn1ncc(-c2nc3c(O[C@H]4CCN(C(=O)c5oncc5C)C4)ncnc3n2C)c1C [Compound 2-69, 8-(1-ethyl-5-methyl-1H-pyrazol-4-yl)-9-methyl-6-({(3S)-1-[(4-methylisoxazol-5-yl)carbonyl]pyrrolidin-3-yl}oxy)-9H-purine] | >10
27 | CCn1ncc(-c2nc3c(O[C@H]4CCN(C(=O)c5ocnc5C)C4)ncnc3n2C)c1C [Compound 2-71, 8-(1-ethyl-5-methyl-1H-pyrazol-4-yl)-9-methyl-6-({(3S)-1-[(4-methyl-1,3-oxazol-5-yl)carbonyl]pyrrolidin-3-yl}oxy)-9H-purine] | >10
28 | CCn1ncc(-c2nc3c(O[C@H]4CCN(C(=O)c5cn[nH]c5)C4)ncnc3n2C)c1C [Compound 2-72, 8-(1-ethyl-5-methyl-1H-pyrazol-4-yl)-9-methyl-6-{[(3S)-1-(1H-pyrazol-4-ylcarbonyl)pyrrolidin-3-yl]oxy}-9H-purine] | 9
29 | CCn1ncc(-c2nc3c(O[C@H]4CCN(C(=O)c5cncn5C)C4)ncnc3n2C)c1C [Compound 2-73] | >10
30 | CCn1ncc(-c2nc3c(O[C@H]4CCN(C(=O)c5cc(C)[nH]n5)C4)ncnc3n2C)c1C [Compound 2-75, 8-(1-ethyl-5-methyl-1H-pyrazol-4-yl)-9-methyl-6-({(3S)-1-[(5-methyl-1H-pyrazol-3-yl)carbonyl]pyrrolidin-3-yl}oxy)-9H-purine] | 5
